The values below are quoted from earlier work in US7604185B2, “Generation of therapeutic microfoam” (BTG International Ltd., priority 2002, dated 2009).

Molecules are shown by their SMILES.

For this data set the following is noted: in water at STP.
Consider `[N-]=[N+]=O` [Nitrous oxide], for which the “Mole Fraction Solubility 10^−3” value is on record as 43.7 10^−3.

As to `[He]` [Helium], the “Mole Fraction Solubility 10^−3” value is 0.7 10^−3.

As to `O=O` [Oxygen], the “Mole Fraction Solubility 10^−3” value was 2.3 10^−3.

On to `O=C=O` [Carbon dioxide], for which the “Mole Fraction Solubility 10^−3” value was 61.5 10^−3.
